In US9085598B2, “Compounds targeting the cell invasion protein complex, their pharmaceutical compositions and methods of use thereof” (THE ROYAL INSTITUTE FOR THE ADVANCEMENT OF LEARNING/MCGILL …, priority 2011, dated 2015):
Read-outs that look alike come from different tables or passages of the source.

Experiments:
[1] = system: MDA-231 cells; experiment: Inhibition of cell proliferation, MTT metabolic assay; type: cell-based; details: 96 hours continuous treatment, read-out: MDA231- IC50
Experimental: (§1) Exponentially growing DU145 or MDA-231 cells (1×10^3 cells) were seeded in 96-well plates. The final concentration of DMSO was less than 0.05%. After 96 hours, the cell survival was evaluated using 3-(4,5-dimethylthiazo-2-yl)-2,5-diphenyltetrazolium bromide (MTT) metabolic assay.

[2] = system: DU145 cells; experiment: as above; type: cell-based
Experimental: as §1, with “assay. The inhibitory activity (IC50) of the compounds on MDA-231 and DU145 cell proliferation was determined. The results are presented in Table 1 for a representative number of compounds.” for “assay.”

[3] = target: T1, FAK (Homo sapiens, UniProt Q05397); experiment: In vitro kinase activity (Kinase-Glo luminescence); type: biochemical; details: for FAK inhibition (% at 1 μM): Table 1
T1 construct: Human recombinant full-length kinases were incubated in kinase buffer
Experimental: (§2) Human recombinant full-length kinases were incubated in kinase buffer containing ATP and substrate (Poly Glu:Tyr) for 4 hours at room temperature with or without the presence of the compounds listed in Table 1 at various concentrations. Remaining ATP in solution was then quantified using the Kinase-Glo-Iuminescence™ kit (Promega).

[4] = target: T2, PKC-α (Homo sapiens, UniProt P17252); experiment: In vitro kinase activity (Kinase-Glo luminescence); type: biochemical; details: Table 2
T2 construct: Human recombinant full-length kinases were incubated in kinase buffer
Experimental: as §2

[5] = target: T3, HER2 (Homo sapiens, UniProt P04626); experiment: In vitro kinase activity (Kinase-Glo luminescence); type: biochemical
T3 construct: Human recombinant full-length kinases were incubated in kinase buffer
Experimental: as §2

[6] = target: T4, TIE1 (Homo sapiens, UniProt P35590); experiment: In vitro kinase activity (Kinase-Glo luminescence); type: biochemical
T4 construct: Human recombinant full-length kinases were incubated in kinase buffer
Experimental: as §2

[7] = target: T5, AKT-1 (Homo sapiens, UniProt P31749); experiment: In vitro kinase activity (Kinase-Glo luminescence); type: biochemical; details: Table 2
T5 construct: Human recombinant full-length kinases were incubated in kinase buffer
Experimental: as §2

[8] = target: T6, FLT3 (Homo sapiens, UniProt P36888); experiment: In vitro kinase activity (Kinase-Glo luminescence); type: biochemical
T6 construct: Human recombinant full-length kinases were incubated in kinase buffer
Experimental: as §2

[9] = target: T7, Aurora B (Homo sapiens, UniProt Q96GD4); experiment: In vitro kinase activity (Kinase-Glo luminescence); type: biochemical
T7 construct: Human recombinant full-length kinases were incubated in kinase buffer
Experimental: as §2

[10] = target: T8, ABL1 (Homo sapiens, UniProt P00519); experiment: In vitro kinase activity (Kinase-Glo luminescence); type: biochemical
T8 construct: Human recombinant full-length kinases were incubated in kinase buffer
Experimental: as §2

[11] = target: T9, CDK1/Cyclin B (Homo sapiens, UniProt P06493); experiment: In vitro kinase activity (Kinase-Glo luminescence); type: biochemical
T9 construct: Human recombinant full-length kinases were incubated in kinase buffer
Experimental: as §2

[12] = target: T10, PDGFR-β (Homo sapiens, UniProt P09619); experiment: In vitro kinase activity (Kinase-Glo luminescence); type: biochemical
T10 construct: Human recombinant full-length kinases were incubated in kinase buffer
Experimental: as §2

[13] = target: T11, SRC (Homo sapiens, UniProt P12931); experiment: In vitro kinase activity (Kinase-Glo luminescence); type: biochemical
T11 construct: Human recombinant full-length kinases were incubated in kinase buffer
Experimental: as §2

[14] = target: T12, YES1 (Homo sapiens, UniProt P07947); experiment: In vitro kinase activity (Kinase-Glo luminescence); type: biochemical
T12 construct: Human recombinant full-length kinases were incubated in kinase buffer
Experimental: as §2

[15] = target: T13, LYN (Homo sapiens, UniProt P07948); experiment: In vitro kinase activity (Kinase-Glo luminescence); type: biochemical
T13 construct: Human recombinant full-length kinases were incubated in kinase buffer
Experimental: as §2

[16] = target: T14, EGFR (Homo sapiens, UniProt P00533); experiment: In vitro kinase activity (Kinase-Glo luminescence); type: biochemical
T14 construct: Human recombinant full-length kinases were incubated in kinase buffer
Experimental: as §2

[17] = target: T15, MET (Homo sapiens, UniProt P08581); experiment: In vitro kinase activity (Kinase-Glo luminescence); type: biochemical
T15 construct: Human recombinant full-length kinases were incubated in kinase buffer
Experimental: as §2

[18] = target: T16, TRKB (Homo sapiens, UniProt Q16620); experiment: In vitro kinase activity (Kinase-Glo luminescence); type: biochemical
T16 construct: Human recombinant full-length kinases were incubated in kinase buffer
Experimental: as §2

[19] = target: T17, FYN (Homo sapiens, UniProt P06241); experiment: In vitro kinase activity (Kinase-Glo luminescence); type: biochemical
T17 construct: Human recombinant full-length kinases were incubated in kinase buffer
Experimental: as §2

[20] = target: T18, PLK4 (Homo sapiens, UniProt O00444); experiment: In vitro kinase activity (Kinase-Glo luminescence); type: biochemical
T18 construct: Human recombinant full-length kinases were incubated in kinase buffer
Experimental: as §2

[21] = target: T19, INSR (Homo sapiens, UniProt P06213); experiment: In vitro kinase activity (Kinase-Glo luminescence); type: biochemical
T19 construct: Human recombinant full-length kinases were incubated in kinase buffer
Experimental: as §2

[22] = target: T20, SYK (Homo sapiens, UniProt P43405); experiment: In vitro kinase activity (Kinase-Glo luminescence); type: biochemical
T20 construct: Human recombinant full-length kinases were incubated in kinase buffer
Experimental: as §2

[23] = target: T21, VEGFR2 (Homo sapiens, UniProt P35968); experiment: In vitro kinase activity (Kinase-Glo luminescence); type: biochemical
T21 construct: Human recombinant full-length kinases were incubated in kinase buffer
Experimental: as §2

[24] = target: T22, EPHA1 (Homo sapiens, UniProt P21709); experiment: In vitro kinase activity (Kinase-Glo luminescence); type: biochemical
T22 construct: Human recombinant full-length kinases were incubated in kinase buffer
Experimental: as §2

[25] = target: T23, P38-γ (Homo sapiens, UniProt P53778); experiment: In vitro kinase activity (Kinase-Glo luminescence); type: biochemical
T23 construct: Human recombinant full-length kinases were incubated in kinase buffer
Experimental: as §2

[26] = target: T24, IGF1R (Homo sapiens, UniProt P08069); experiment: In vitro kinase activity (Kinase-Glo luminescence); type: biochemical
T24 construct: Human recombinant full-length kinases were incubated in kinase buffer
Experimental: as §2

[27] = target: T25, PIM1 (Homo sapiens, UniProt P11309); experiment: In vitro kinase activity (Kinase-Glo luminescence); type: biochemical
T25 construct: Human recombinant full-length kinases were incubated in kinase buffer
Experimental: as §2

[28] = target: T26, Aurora A (Homo sapiens, UniProt O14965); experiment: In vitro kinase activity (Kinase-Glo luminescence); type: biochemical
T26 construct: Human recombinant full-length kinases were incubated in kinase buffer
Experimental: as §2

[29] = target: T27, RPS6KA4 (Homo sapiens, UniProt O75676); experiment: In vitro kinase activity (Kinase-Glo luminescence); type: biochemical
T27 construct: Human recombinant full-length kinases were incubated in kinase buffer
Experimental: as §2

[30] = target: T28, DDR1 (Homo sapiens, UniProt Q08345); experiment: In vitro kinase activity (Kinase-Glo luminescence); type: biochemical
T28 construct: Human recombinant full-length kinases were incubated in kinase buffer
Experimental: as §2

[31] = target: T29, IKK-ε (Homo sapiens, UniProt Q14164); experiment: In vitro kinase activity (Kinase-Glo luminescence); type: biochemical
T29 construct: Human recombinant full-length kinases were incubated in kinase buffer
Experimental: as §2

[32] = target: T30, PAK1 (Homo sapiens, UniProt Q13153); experiment: In vitro kinase activity (Kinase-Glo luminescence); type: biochemical
T30 construct: Human recombinant full-length kinases were incubated in kinase buffer
Experimental: as §2

[33] = target: T31, SGK3 (Homo sapiens, UniProt Q96BR1); experiment: In vitro kinase activity (Kinase-Glo luminescence); type: biochemical
T31 construct: Human recombinant full-length kinases were incubated in kinase buffer
Experimental: as §2

[34] = target: T32, FGFR1 (Homo sapiens, UniProt P11362); experiment: In vitro kinase activity (Kinase-Glo luminescence); type: biochemical
T32 construct: Human recombinant full-length kinases were incubated in kinase buffer
Experimental: as §2

[35] = Homo sapiens, MDA-MB-231, MDA-231 cell proliferation
[36] = Homo sapiens, DU-145, 96 hours continuous treatment
[37] = read-out: FAK inhibition (% at 1 μM)

T1 sequence (Q05397 whole entry): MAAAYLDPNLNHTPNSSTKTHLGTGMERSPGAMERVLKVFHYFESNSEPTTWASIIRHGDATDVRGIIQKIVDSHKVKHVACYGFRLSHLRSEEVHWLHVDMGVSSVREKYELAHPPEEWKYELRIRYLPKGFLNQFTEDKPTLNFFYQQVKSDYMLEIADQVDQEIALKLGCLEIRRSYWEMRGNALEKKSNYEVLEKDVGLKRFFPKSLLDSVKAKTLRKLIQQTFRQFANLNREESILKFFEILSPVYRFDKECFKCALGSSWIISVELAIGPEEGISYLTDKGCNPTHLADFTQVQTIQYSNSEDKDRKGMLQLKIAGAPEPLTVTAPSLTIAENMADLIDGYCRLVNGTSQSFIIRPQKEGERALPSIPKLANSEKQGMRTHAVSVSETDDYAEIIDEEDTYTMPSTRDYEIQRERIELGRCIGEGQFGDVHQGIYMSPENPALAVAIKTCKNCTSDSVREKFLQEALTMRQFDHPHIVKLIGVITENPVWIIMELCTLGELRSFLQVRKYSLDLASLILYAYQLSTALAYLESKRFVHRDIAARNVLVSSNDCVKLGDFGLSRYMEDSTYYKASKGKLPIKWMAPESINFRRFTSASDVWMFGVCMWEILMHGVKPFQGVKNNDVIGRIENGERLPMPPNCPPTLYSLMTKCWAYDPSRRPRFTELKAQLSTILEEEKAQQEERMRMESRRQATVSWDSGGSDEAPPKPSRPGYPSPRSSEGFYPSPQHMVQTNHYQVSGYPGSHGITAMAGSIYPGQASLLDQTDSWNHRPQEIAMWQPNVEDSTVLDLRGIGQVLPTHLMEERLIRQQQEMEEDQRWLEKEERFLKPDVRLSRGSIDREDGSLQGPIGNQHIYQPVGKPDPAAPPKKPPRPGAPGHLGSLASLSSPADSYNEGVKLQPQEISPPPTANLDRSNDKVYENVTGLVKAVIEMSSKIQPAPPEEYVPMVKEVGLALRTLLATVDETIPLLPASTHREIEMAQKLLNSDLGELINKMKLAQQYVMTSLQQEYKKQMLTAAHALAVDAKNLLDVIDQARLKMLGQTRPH
T3 sequence (P04626 23-1255): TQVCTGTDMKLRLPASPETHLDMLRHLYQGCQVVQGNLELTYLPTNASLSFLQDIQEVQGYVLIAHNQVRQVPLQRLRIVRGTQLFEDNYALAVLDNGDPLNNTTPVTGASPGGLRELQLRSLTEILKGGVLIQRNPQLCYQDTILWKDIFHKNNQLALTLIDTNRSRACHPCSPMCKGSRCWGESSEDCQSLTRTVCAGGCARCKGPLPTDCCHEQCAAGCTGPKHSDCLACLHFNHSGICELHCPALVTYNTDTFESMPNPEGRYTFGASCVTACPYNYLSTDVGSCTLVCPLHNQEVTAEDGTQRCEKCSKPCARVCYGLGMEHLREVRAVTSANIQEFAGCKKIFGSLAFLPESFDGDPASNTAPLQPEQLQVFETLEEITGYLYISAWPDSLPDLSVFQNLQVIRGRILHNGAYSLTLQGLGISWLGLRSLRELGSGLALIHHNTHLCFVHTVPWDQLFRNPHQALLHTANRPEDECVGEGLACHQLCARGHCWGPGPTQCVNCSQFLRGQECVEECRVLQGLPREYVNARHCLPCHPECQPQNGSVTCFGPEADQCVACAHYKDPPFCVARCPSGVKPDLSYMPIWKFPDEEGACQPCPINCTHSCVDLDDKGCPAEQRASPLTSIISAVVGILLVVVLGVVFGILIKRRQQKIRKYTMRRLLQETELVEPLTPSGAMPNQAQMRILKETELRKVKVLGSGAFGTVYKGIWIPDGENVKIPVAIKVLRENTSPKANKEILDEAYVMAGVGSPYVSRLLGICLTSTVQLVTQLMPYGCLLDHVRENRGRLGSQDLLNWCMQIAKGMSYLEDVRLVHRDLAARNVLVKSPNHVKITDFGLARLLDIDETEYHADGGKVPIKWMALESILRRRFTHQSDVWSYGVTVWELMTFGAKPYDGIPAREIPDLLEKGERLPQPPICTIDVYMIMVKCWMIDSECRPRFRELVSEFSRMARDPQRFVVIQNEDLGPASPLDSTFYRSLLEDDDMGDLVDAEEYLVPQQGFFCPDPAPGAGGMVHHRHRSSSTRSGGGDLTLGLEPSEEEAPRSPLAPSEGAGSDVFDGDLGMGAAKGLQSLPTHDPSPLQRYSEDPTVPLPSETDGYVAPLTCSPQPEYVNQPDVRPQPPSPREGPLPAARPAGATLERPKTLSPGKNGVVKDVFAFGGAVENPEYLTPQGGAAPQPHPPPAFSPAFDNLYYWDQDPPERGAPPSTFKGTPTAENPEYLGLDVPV
T26 sequence (O14965 whole entry): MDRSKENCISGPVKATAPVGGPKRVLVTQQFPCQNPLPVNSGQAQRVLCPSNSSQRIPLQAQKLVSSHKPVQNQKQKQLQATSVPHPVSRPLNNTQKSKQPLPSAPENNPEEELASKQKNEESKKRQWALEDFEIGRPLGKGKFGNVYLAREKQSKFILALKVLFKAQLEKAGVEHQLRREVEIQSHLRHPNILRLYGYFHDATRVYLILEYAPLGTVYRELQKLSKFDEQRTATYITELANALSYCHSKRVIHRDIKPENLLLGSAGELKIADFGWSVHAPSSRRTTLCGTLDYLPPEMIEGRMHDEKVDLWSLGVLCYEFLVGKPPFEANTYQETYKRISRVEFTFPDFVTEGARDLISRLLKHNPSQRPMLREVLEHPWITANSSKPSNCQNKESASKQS
T19 sequence (P06213 28-1382): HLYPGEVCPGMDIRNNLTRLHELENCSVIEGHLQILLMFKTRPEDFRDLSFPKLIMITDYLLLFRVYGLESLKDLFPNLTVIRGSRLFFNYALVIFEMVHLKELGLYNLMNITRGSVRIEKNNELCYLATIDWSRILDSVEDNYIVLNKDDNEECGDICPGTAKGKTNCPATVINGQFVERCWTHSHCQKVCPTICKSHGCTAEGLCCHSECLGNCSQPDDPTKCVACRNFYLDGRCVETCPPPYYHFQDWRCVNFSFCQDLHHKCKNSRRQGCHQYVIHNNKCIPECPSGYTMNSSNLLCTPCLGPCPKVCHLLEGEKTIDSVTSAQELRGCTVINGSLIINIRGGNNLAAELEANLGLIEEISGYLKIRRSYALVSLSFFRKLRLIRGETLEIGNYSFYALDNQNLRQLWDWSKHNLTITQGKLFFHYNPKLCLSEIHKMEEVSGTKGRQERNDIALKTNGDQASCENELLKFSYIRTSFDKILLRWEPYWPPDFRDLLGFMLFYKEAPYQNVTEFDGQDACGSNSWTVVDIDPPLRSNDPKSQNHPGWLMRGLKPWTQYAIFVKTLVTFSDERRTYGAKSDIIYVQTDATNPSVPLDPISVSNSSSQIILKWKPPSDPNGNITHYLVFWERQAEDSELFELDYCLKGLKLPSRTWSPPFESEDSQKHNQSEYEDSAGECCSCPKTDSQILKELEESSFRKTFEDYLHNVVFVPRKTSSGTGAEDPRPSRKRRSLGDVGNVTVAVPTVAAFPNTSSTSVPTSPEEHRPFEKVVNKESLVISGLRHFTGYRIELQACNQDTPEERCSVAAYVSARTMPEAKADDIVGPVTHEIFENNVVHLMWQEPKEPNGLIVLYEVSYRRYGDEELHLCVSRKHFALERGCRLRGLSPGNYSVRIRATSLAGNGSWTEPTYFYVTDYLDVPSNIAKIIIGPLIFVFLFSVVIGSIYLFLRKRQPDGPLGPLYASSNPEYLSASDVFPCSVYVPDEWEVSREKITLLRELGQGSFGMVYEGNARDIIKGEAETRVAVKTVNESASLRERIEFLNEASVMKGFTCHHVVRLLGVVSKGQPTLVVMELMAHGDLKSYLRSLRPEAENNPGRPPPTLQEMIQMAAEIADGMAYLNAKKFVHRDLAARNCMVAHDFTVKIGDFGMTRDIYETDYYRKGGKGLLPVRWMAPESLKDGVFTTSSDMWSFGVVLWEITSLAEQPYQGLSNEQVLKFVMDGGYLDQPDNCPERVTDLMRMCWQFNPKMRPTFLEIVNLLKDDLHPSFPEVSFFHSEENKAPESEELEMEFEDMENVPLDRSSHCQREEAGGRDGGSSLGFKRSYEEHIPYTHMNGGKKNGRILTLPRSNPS
T18 sequence (O00444 whole entry): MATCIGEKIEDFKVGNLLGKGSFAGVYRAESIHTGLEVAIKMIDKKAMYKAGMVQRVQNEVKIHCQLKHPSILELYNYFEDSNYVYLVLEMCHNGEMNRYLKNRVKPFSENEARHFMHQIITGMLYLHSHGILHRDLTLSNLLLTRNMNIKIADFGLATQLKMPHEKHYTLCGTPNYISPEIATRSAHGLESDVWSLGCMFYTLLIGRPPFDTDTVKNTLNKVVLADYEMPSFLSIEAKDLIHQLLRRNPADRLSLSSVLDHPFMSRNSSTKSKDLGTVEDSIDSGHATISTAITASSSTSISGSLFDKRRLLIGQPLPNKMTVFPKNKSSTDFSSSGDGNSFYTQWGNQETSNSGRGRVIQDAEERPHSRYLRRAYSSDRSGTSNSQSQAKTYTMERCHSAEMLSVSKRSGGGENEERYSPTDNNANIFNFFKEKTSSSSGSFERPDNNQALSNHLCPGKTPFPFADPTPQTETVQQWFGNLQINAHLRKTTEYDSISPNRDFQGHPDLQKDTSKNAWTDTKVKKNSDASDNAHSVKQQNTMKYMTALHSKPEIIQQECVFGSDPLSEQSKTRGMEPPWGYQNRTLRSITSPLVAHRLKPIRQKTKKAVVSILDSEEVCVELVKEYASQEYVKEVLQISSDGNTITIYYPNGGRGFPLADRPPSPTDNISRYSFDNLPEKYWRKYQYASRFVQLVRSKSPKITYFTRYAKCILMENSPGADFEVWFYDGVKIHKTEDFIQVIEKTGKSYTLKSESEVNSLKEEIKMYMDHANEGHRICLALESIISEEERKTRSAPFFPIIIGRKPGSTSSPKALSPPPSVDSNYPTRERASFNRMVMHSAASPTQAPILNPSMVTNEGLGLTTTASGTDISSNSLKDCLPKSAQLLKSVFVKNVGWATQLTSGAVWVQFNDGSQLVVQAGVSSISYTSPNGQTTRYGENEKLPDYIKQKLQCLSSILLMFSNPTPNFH

O=C(Cn1[se]c2ccccc2c1=O)N[C@@H]1O[C@H](CO)[C@@H](O)[C@H](O)[C@H]1O [Compound 7, 2-(3-oxo-1,2-benzisoselenazol-2(3H)-yl)-N-(1-deoxy-β-D-glucopyranosyl)-acetamide]
IC50 ([1]; MDA-231 cell proliferation): 52 µM
IC50 ([2]; 96 hours continuous treatment): 40.3 µM
FAK inhibition (% at 1 μM) ([3]; 1 μM): 8%

CC(=O)OCC1O[C@@H](OC(=O)Cn2[se]c3ccccc3c2=O)C(OC(C)=O)C(OC(C)=O)[C@@H]1OC(C)=O (stereo partly drawn) [Compound 17]
IC50 [1, 35]: 35 µM
IC50 [2, 36]: 30.4 µM
inhibition at 1 µM [3, 37]: 51.9%

2-(4-(2,3,4,6-tetra-O-acetyl-β-D-glucopyranosyl)phenzyl)-1,2-benzisoselenazol-3(2H)-one [Compound 8]
IC50 ([1]; MDA-231 cell proliferation): 24.6 µM
IC50 ([2]; 96 hours continuous treatment): 33.7 µM
FAK inhibition (% at 1 μM) ([3]; 1 μM): 12%

2-(4-(β-D-glucopyranosyl)phenzyl)-1,2-benzisoselenazol-3(2H)-one [Compound 9]
IC50 ([1]; MDA-231 cell proliferation): 380 µM
IC50 ([2]; 96 hours continuous treatment): 277 µM
FAK inhibition (% at 1 μM) ([3]; 1 μM): 4%

O=C(Cn1[se]c2ccccc2c1=O)N[C@@H]1OC(CO)[C@@H](O)C(O)C1O (stereo partly drawn) [Compound 20]
IC50 [1, 35]: 550 µM
IC50 [2, 36]: 395 µM
inhibition at 1 µM [3, 37]: 15%

O=C(CCCn1[se]c2ccccc2c1=O)N[C@@H]1OC(CO)[C@H](O)C(O)C1O (stereo partly drawn) [Compound 14]
IC50 [1, 35]: 54 µM
IC50 [2, 36]: 66.4 µM
inhibition at 1 µM [3, 37]: 13%

CC(=O)OC[C@H]1O[C@@H](NC(=O)Cn2[se]c3ccccc3c2=O)[C@H](OC(C)=O)[C@@H](OC(C)=O)[C@@H]1OC(C)=O [Compound 6, 2-(3-oxo-1,2-benzisoselenazol-2(3H)-yl)-N-(1-deoxy-2,3,4,6-tetra-O-acetyl-β-D-glucopyranosyl)-acetamide]
IC50 ([1]; MDA-231 cell proliferation): 275 µM
IC50 ([2]; 96 hours continuous treatment): 145 µM

O=c1c2ccccc2[se]n1-c1ccccc1 [Ebselen, reference compound]
inhibition at 1 µM [4]: 25%
inhibition at 1 µM [5]: 0%
inhibition at 1 µM [6]: 0%
inhibition at 1 µM [7]: 22%
inhibition at 1 µM [8]: 0%
inhibition at 1 µM [9]: 0%
inhibition at 1 µM [10]: 0%
inhibition at 1 µM [11]: 0%
inhibition at 1 µM [12]: 0%
inhibition at 1 µM [13]: 0%
inhibition at 1 µM [14]: 0%
inhibition at 1 µM [15]: 0%
inhibition at 1 µM [16]: 0%
inhibition at 1 µM [17]: 0%
inhibition at 1 µM [18]: 0%
inhibition at 1 µM [19]: 0%
inhibition at 1 µM [20]: 0%
inhibition at 1 µM [21]: 0%
inhibition at 1 µM [22]: 0%
inhibition at 1 µM [23]: 0%
inhibition at 1 µM [24]: 0%
inhibition at 1 µM [25]: 0%
inhibition at 1 µM [26]: 0%
inhibition at 1 µM [27]: 0%
inhibition at 1 µM ([3]; 1 μM, Table 2, read-out: % Inhibition FAK): 1%
inhibition at 1 µM [28]: 0%
inhibition at 1 µM [29]: 0%
inhibition at 1 µM [30]: 0%
inhibition at 1 µM [31]: 0%
inhibition at 1 µM [32]: 0%
inhibition at 1 µM [33]: 0%
inhibition at 1 µM [34]: 0%

(2,3,4,6-tetra-O-acetyl-β-D-glucopyranosyl)-4-(3-oxo-1,2-benzisoselenazol-2(3H)-yl)benzoate [Compound 10]
IC50 ([1]; MDA-231 cell proliferation): 57.5 µM
IC50 ([2]; 96 hours continuous treatment): 30.6 µM
